Source: patent US20210255184A1, “Biosensor Device and Methods” (The New Zealand Institute for Plant and Food Research …, priority 2018, published 2021)

Molecular target: T1, Or22a/Orco (Drosophila melanogaster, UniProt P81909)
T1 construct: his-tag; made in house; host or cells: baculovirus-infected Sf9 cells
T1 sequence (P81909 1-397): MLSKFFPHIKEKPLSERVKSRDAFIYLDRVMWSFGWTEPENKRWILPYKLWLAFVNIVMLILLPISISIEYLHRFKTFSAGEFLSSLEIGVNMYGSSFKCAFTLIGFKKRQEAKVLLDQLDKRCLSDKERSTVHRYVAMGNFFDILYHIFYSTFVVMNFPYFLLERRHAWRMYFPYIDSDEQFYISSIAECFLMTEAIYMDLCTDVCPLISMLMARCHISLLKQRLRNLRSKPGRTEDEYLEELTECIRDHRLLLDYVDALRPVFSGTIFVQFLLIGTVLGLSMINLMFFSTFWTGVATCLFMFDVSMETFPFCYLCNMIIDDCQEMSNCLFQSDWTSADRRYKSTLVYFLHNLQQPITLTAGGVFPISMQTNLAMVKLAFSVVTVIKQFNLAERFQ
T1 sequence (Q9VNB5 1-486 partner): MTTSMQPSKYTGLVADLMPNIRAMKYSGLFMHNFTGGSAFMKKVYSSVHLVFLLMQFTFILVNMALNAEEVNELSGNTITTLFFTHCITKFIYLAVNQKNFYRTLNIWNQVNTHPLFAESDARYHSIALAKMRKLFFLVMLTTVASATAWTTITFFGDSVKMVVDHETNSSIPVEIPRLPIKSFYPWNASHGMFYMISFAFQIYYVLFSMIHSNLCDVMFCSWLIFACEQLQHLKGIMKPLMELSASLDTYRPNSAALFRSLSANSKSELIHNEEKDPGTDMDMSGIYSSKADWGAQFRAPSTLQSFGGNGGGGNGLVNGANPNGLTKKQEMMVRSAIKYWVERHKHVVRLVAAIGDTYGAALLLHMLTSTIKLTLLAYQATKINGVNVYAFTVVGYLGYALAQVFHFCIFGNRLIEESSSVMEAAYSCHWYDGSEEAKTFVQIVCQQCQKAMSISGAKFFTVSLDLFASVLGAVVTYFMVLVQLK
Assay: GFET sensor, Or22a/Orco liposomes
Format: biochemical
Conditions: Table 4, GFET
Excerpt: The GFETs used in this study were fabricated from a predeposited graphene film on 300 nm SiO2 coated Si substrate from ACS Suppliers, USA. The FETs consist of a channel with dimensions of 100 μm width and […]. The key steps involved in fabricating the GFET on a Si/SiO2 substrate is schematically illustrated in FIG. 12. The source and drain electrodes were defined by photolithography and formed by successive deposition of Cr and Au. Both the drain and source electrodes were then encapsulated using AZ1518 photoresist and a channel with dimensions of 100 μm width and 10 μm length was left open to the environment for gating and functionalisation.
The OR liposomes were functionalised onto the graphene surface via a non-covalent route using PBASE as the molecular linker as shown in FIG. 13. The OR liposomes were diluted at 1:10 ratio with 1×PBS (pH7.4). The cleaned GFETs were immersed in 1 mM PBASE solution in methanol for 1 hour. […]
Electrical sensor measurements of OR liposome functionalised GFETs were carried out using top liquid gate morphology as shown in the schematic in FIG. 15 (a). […] The transfer characteristics of the different graphene FETs (FIG. 15 (b) to (g)) were measured at Vds=1 mV while the liquid gate voltage Vlg was swept from −0.5 V to 1 V with an interval of 20 mV. […]

CCCCCC(=O)OC [methyl hexanoate]
Detection Range: 10^−13-10^−8 M | EC50: 3.91 pM
